# Measurements: patent publication US10167299B2, “1-(3-aminopropyl) substituted cyclic amine compounds, preparation method therefor, and pharmaceutical compositions and uses thereof” (SHANGHAI INSTITUTE OF MATERIA MEDICA, CHINESE ACADEMY OF …, priority 2013, dated 2019)
# Where two headings read alike, the source gives them in different places.
# Experiments:
# [1] = Cytotoxicity (CC50) in TZM-bl cells; type: cell-based; conditions: human; TZM-bl cells (Table 3); read-out: CC50
# HIV-1SF162 virus strain [2] = assay: Inhibition of viral replication in PBMC infected with HIV-1SF162; type: cell-based
# Experimental: (§1) The virus was titrated according to the modified method of Johnson & Byington. Briefly, the HIV-1 stock solution was subject to four-fold dilution in a 96-well plate (ten gradients) sextuplicate for each gradient, while setting six control-wells. Into each well was added 100 μl (5×10^6/ml) PHA-stimulated PBMC cells and final volume per well was 200 μl. The cells were cultured at 37° C. with 5% CO2. […] On the seventh day, the infected supernatant was collected and lysed with 0.5% Triton X100. The p24 antigen was detected by ELISA and TCID50 of virus was calculated according to Reed & Muench method (50% Tissue culture infection dose).
# (§2) The starting concentration was 1 μM, six dilutions were obtained, and each well contained 200 μl mixture. While wells not containing drugs were set as control. […] After homogeneously mixed, the mixture was immediately added to 48-well plate containing diluted drug and each well was added with 200 μl of mixture. MVC was used as positive control. The cells were cultured at 37° C. with 5% CO2 for seven days (drug with the same concentration was added on the third day). The supernatant was collected, lysed and inactivated with 0.5% Triton X-100. The inhibition effect of drug on HIV-1 replication was detected using p24 antigen capture ELISA method.
# HIV-1KM018 virus strain = assay: Inhibition of viral replication in PBMC infected with HIV-1KM018; type: cell-based
# Experimental: as §1, §2
# HIV-1Ba-L virus strain [3] = assay: Inhibition of viral replication in PBMC infected with HIV-1Ba-L; type: cell-based
# Experimental: The virus was titrated according to the modified method of Johnson & Byington. Briefly, the HIV-1 stock solution was subject to four-fold dilution in a 96-well plate (ten gradients) sextuplicate for each gradient, while setting six control-wells. Into each well was added 100 μl (5×10^6/ml) PHA-stimulated PBMC cells and final volume per well was 200 μl. The cells were cultured at 37° C. with 5% CO2. On the third day, 100 μl of fresh RPMI-1640 complete medium was supplemented. On the seventh day, the infected supernatant was collected and lysed with 0.5% Triton X100. The p24 antigen was detected by ELISA and TCID50 of virus was calculated according to Reed & Muench method (50% Tissue culture infection dose).
# The compound to be tested was subject to 5-fold dilution in 48-well plate with RPMI-1640 complete medium (containing 10% FBS). The starting concentration was 1 μM, six dilutions were obtained, and each well contained 200 μl mixture. While wells not containing drugs were set as control. Virus (MOI=0.01) was added to 5×10^6/ml of PBMC cells which have been stimulated by PHA for 72 h. After homogeneously mixed, the mixture was immediately added to 48-well plate containing diluted drug and each well was added with 200 μl of mixture. MVC was used as positive control. The cells were cultured at 37° C. with 5% CO2 for seven days (drug with the same concentration was added on the third day). The supernatant was collected, lysed and inactivated with 0.5% Triton X-100. The inhibition effect of drug on HIV-1 replication was detected using p24 antigen capture ELISA method.
# [4] = Toxicity test of compounds on PBMC cells (MTT); type: cell-based; conditions: human, PBMC cells (Table 4)
# Experimental: (§3) The compound to be tested was subject to 5-fold dilution in a 96-well microtiter plate with RPMI-1640 or DMEM complete medium (containing 10% FBS) (Six dilution) triplicate for each dilution and 100 μl for each well. While wells not containing drugs were set as control. Into each well was added 100 μl of 4×10^5/ml PM1, HOS-CD4-CCR5 cells or 100 μl of 5×10^6/ml PHA stimulated PBMC. The cells were cultured at 37° C. with 5% CO2 for three days (PBMC cells were cultured for seven days and 100 μl of fresh RPMI-1640 complete medium was supplemented on the third day). Cytotoxicity was tested with MTT assay. OD values were measured by ELx800 microplate reader. The detection wavelength was 570 nm, and the reference wavelength was 630 nm.
# HIV-1Ba-L virus strain [5] = assay: Inhibition of viral replication in HOS-CD4-CCR5 cells infected with HIV-1Ba-L; type: cell-based
# Experimental: (§4) On the day before the test, 1×10^5/ml of HOS-CD4-CCR5 cells were inoculated in 96-well plates with 100 μl for each well. The compound to be tested was subject to 5-fold dilution in 96-well microtiter plate with DMEM complete medium (containing 10% FBS). The starting concentration was 1 μM and six dilutions were obtained. Triplicate wells were set for each dilution and each well contained 100 μl mixture. While wells not containing drugs were set as control. The supernatant was removed and 100 μl of drug was added and incubated for 2 h. Then 100 μl of HIV-1SF162 and HIV-1Ba-L were added to dilute supernatant. The cells were infected for 1 h, free virus was washed out and drug with the same final concentration was added. MVC was used as positive control. The cells were cultured at 37° C. with 5% CO2 for three days. The supernatant was collected, lysed and inactivated with 0.5% Triton X-100. The inhibition effect of drug on HIV-1 replication was detected using p24 antigen capture ELISA method.
# HIV-1SF162 virus strain [6] = assay: Inhibition of viral replication in HOS-CD4-CCR5 cells infected with HIV-1SF162; type: cell-based
# Experimental: as §4
# [7] = Toxicity test of compounds on HOS-CD4-CCR5 cells (MTT); type: cell-based; conditions: human; HOS-CD4+-CCR5 cells (Table 7)
# Experimental: as §3
# in vivo = conditions: male, rat
# Experimental: The administration volume was 10 mL/kg and drug was formulated with DMSO/Tween 80/physiological saline (5:5:90, v/v/v). […] 2 h after dosing, the rats ate together.
# At above time points, 0.3 ml of venous blood was taken from retrobulbar venous plexus of the rat and loaded into EDTA-2K anticoagulative tube. After centrifuged at 11000 rpm for 5 mm, the plasma was separated and frozen at −20° C. in a refrigerator.
# The concentration of each compound in rat plasma was determined by LC/MS/MS.
# The pharmacokinetic parameters after administration were calculated by using non-compartment model of WinNonlin 5.3 software (Pharsight Corporation, USA).
# HIV-1SF162 virus strain [8] = assay: Inhibition activity on TZM-bl cells infected with HIV-1SF162; conditions: for EC50: Human immunodeficiency virus 1, TZM-bl; for therapeutic index (TI): TZM-bl cells infected with HIV-1SF162; for cytotoxicity in vitro and therapeutic index in words, versus positive control compound: TZM-bl cells infected with HIV-1SF162, conclusion from Table 3
# [9] = Human immunodeficiency virus 1, PBMC
# [10] = Human immunodeficiency virus 1, HOS-CD4-CCR5
SMILES,CC50 [1] [µg/mL],CC50 at 3 days [7] [µg/mL],bioavailability (in vivo) [%],AUC(0-t) (in vivo; 10 mg/kg) [ng·h/mL],"AUC(0-inf) (in vivo; iv, 10 mg/kg) [ng·h/mL]","AUC(0-t) (in vivo; iv, 10 mg/kg) [ng·h/mL]","Cmax (in vivo; iv, 10 mg/kg) [ng/mL]","MRT (in vivo; iv, 10 mg/kg) [min]","Tmax (in vivo; iv, 10 mg/kg) [min]","half-life (in vivo; iv, 10 mg/kg) [min]","AUC(0-inf) (in vivo; po, 20 mg/kg) [ng·h/mL]","AUC(0-t) (in vivo; po, 20 mg/kg) [ng·h/mL]","Cmax (in vivo; po, 20 mg/kg) [ng/mL]","MRT (in vivo; po, 20 mg/kg) [min]","Tmax (in vivo; po, 20 mg/kg) [min]","bioavailability (in vivo; po, 20 mg/kg) [%]","half-life (in vivo; po, 20 mg/kg) [min]",EC50 (HIV-1SF162 virus strain [8]) [µg/mL],therapeutic index (TI) (HIV-1SF162 virus strain [8]),"cytotoxicity in vitro and therapeutic index in words, versus positive control compound (HIV-1SF162 virus strain [8])",other results
"Cc1nnc(C(C)C)n1C1CC2CCC(C1)N2CC[C@H](NC(=O)C1CCC(F)(F)CC1)c1cccs1 (stereo partly drawn) [Compound 14, 4,4-difluoro-N-[(1S)-3-[exo-3-(3-isopropyl-5-methyl-4H-1,2,4-triazol-4-yl)-8-azabicyclo[3.2.1]octane-8-yl]-1-(thiophen-2-yl)propyl]cyclohexane-1-carboxamide]",> 200,370,7.85,7050,7060,7050,6840,42.6,15,46.2,1190,1110,266,200,240,7.85,127,0.00359,>55710.31,better than positive control compound,"EC50 (HIV-1SF162 virus strain [2]; Human immunodeficiency virus 1, PBMC cells infected with HIV-1SF162, read-out: EC50): 0.00158 µg/mL; EC50 (HIV-1KM018 virus strain; Human immunodeficiency virus 1, PBMC cells infected with HIV-1KM018, read-out: EC50): 0.00377 µg/mL; EC50 (HIV-1Ba-L virus strain [3]; Human immunodeficiency virus 1, PBMC cells infected with HIV-1Ba-L, read-out: EC50): 0.0197 µg/mL; CC50 at 7 days ([4]; PHA stimulated PBMC): 268 µg/mL; EC50 (HIV-1Ba-L virus strain [5]; Human immunodeficiency virus 1, HOS-CD4+-CCR5 cells infected with HIV-1Ba-L, read-out: EC50): 0.00074 µg/mL; EC50 (HIV-1SF162 virus strain [6]; Human immunodeficiency virus 1, HOS-CD4+-CCR5 cells infected with HIV-1SF162, read-out: EC50): 0.0131 µg/mL"
Cc1nnc(C(C)C)n1C1CC2CCC(C1)N2CC[C@H](NC(=O)C1CCCCC1)c1cccs1 (some centres unmarked) [Compound 16],> 200,343,14.8,5110,5110,5110,4320,47.4,15,18.6,1510,1510,631,127,15,14.8,69.6,0.0118,>16963.53,comparable with the positive control compound,EC50 (HIV-1SF162 virus strain [2]; [9]): 0.455 µg/mL; therapeutic index (TI) (HIV-1SF162 virus strain [2]; PBMC cells infected with HIV-1SF162): 586.3; EC50 (HIV-1KM018 virus strain; [9]): 0.555 µg/mL; therapeutic index (TI) (HIV-1KM018 virus strain; PBMC cells infected with HIV-1KM018): 481.1; EC50 (HIV-1Ba-L virus strain [3]; [9]): 0.365 µg/mL; therapeutic index (TI) (HIV-1Ba-L virus strain [3]; PBMC cells infected with HIV-1Ba-L): 1301.1; CC50 at 7 days [4]: 267 µg/mL; EC50 (HIV-1Ba-L virus strain [5]; [10]): 0.0105 µg/mL; therapeutic index (TI) (HIV-1SF162 virus strain [6]; HOS-CD4+-CCR5 cells infected with HIV-1SF162): 8042; EC50 (HIV-1SF162 virus strain [6]; [10]): 0.0427 µg/mL
